Experimental data reported in patent US9375004B2 (Bayer Intellectual Property GmbH, priority 2010, dated 2016).
Like-named read-outs stand apart in the source and are kept apart here.

Tests used:
[1] = tested on: Sphaerotheca fuliginea; assay: Sphaerotheca test (cucumber)/preventive; assay type: in vivo; conditions: 500 ppm, preventive, evaluated 7 days after inoculation
[2] = tested on: Pyrenophora teres; assay: Pyrenophora teres-test (barley)/preventive; assay type: in vivo; conditions: 500 ppm, preventive, evaluated 8 days after inoculation
[3] = tested on: Alternaria solani; assay: Alternaria test (tomato)/preventive; assay type: in vivo; conditions: 500 ppm, preventive, evaluated 7 days after inoculation
[4] = tested on: Venturia inaequalis; assay: Venturia test (apples)/preventive; conditions: 100 ppm, preventive, evaluated 10 days after inoculation
Experimental: Venturia Test (Apples)/Preventive
(§1) Solvent: 24.5 parts by weight of acetone • 24.5 parts by weight of N,N-dimethylformamide
(§2) Emulsifier: 1 part by weight of alkylaryl polyglycol ether
After the spray coating has dried on, the plants are inoculated with an aqueous conidia suspension of the causal agent of apple scab (Venturia inaequalis) and then remain for 1 day in an incubation cabinet at approximately 20° C. and a relative atmospheric humidity of 100%.
The plants are then placed in a greenhouse at approximately 21° C. and a relative atmospheric humidity of approximately 90%.
The test is evaluated 10 days after the inoculation.

[5] = logP by HPLC on reversed-phase column (EEC Directive 79/831 Annex V.A8); conditions: HPLC on reversed-phase column (C 18), EEC Directive 79/831 Annex V.A8
[6] = tested on: Puccinia triticina; assay: Puccinia triticina-test (wheat)/preventive; assay type: in vivo; conditions: 500 ppm, preventive, evaluated 8 days after inoculation
[7] = tested on: Botrytis cinerea; assay: Botrytis test (beans)/preventive; conditions: 100 ppm, preventive, lesion size 2 days after inoculation
Experimental: Botrytis Test (Beans)/Preventive
as §1, §2
After the spray coating has dried on, 2 small pieces of agar covered with growth of Botrytis cinerea are placed on each leaf. The inoculated plants are placed in a darkened chamber at 20° C. and a relative atmospheric humidity of 100%.
2 days after the inoculation, the size of the lesions on the leaves is evaluated.

[8] = tested on: Uromyces appendiculatus; conditions: 100 ppm, beans, preventive, evaluated 10 days after inoculation
[9] = tested on: Fusarium nivale (var. majus); assay: Fusarium nivale (var. majus)-test (wheat)/preventive; conditions: preventive, evaluated 5 days after inoculation
Experimental: Fusarium Nivale (Var. Majus)-Test (Wheat)/Preventive
Solvent: 49 parts by weight of N,N-dimethylacetamide
as §2
After the spray coating has been dried, the plants are slightly injured by using a sandblast and afterwards they are sprayed with a conidia suspension of Fusarium nivale (var. majus).
The plants are placed in the greenhouse under a translucent incubation cabinet at a temperature of approximately 10° C. and a relative atmospheric humidity of approximately 100%.
The test is evaluated 5 days after the inoculation.

[10] = tested on: Septoria tritici; assay: Septoria tritici-test (wheat)/preventive; assay type: in vivo; conditions: 500 ppm, preventive, evaluated 21 days after inoculation

Row | SMILES | Efficacy [1] | Efficacy [2] | Efficacy [3] | Efficacy [4] | logP [5] | Efficacy [6] | Efficacy [7] | Efficacy [8] | Efficacy ([9]; 500 ppm) | Efficacy ([9]; 250 ppm) | Efficacy ([8]; listed as 104 from this invention) | Efficacy [10]
1 | Cn1nc(C(F)F)c(C(=O)Nc2ccccc2-c2ccc(Cl)c(Cl)c2)c1F [Example 125] | 98% | 100% | 95% | 100% | 3.85 | 100% | 100% | 100% | – | – | – | –
2 | Cn1nc(C(F)F)c(C(=O)Nc2ccccc2-c2ccc(Cl)c(Cl)c2)c1Cl [Example 126] | 100% | 100% | 89% | 75% | 4.14 | 100% | – | 96% | 100% | – | – | –
3 | Cn1nc(C(F)F)c(C(=O)Nc2ccc(F)cc2-c2ccc(C(F)(F)F)c(F)c2)c1F [Example 150] | 100% | 100% | 89% | 100% | 3.66 | 100% | 100% | 98% | 86% | – | – | –
4 | Cn1nc(C(F)F)c(C(=O)Nc2c(F)cccc2-c2ccc(Cl)c(Cl)c2)c1F [Example 115] | – | – | 95% | 100% | 3.50 | 88% | 94% | 100% | 86% | – | – | –
5 | Cn1nc(C(F)F)c(C(=O)Nc2ccccc2-c2ccc(-c3ccccc3)cc2)c1Cl [Example 138] | 100% | 86% | – | – | 4.61 | 100% | – | – | – | – | – | –
6 | Cn1nc(C(F)F)c(C(=S)Nc2ccccc2-c2ccc(Cl)c(F)c2)c1Cl [Example 101] | 95% | 100% | 80% | – | 3.92 | 100% | – | – | 100% | – | – | –
7 | Cn1nc(C(F)F)c(C(=O)Nc2ccccc2-c2cccc(Cl)c2)c1Cl [Example 87] | 95% | – | 95% | – | 3.87 | – | – | – | – | – | – | –
8 | Cn1nc(C(F)F)c(C(=O)Nc2ccccc2-c2ccc(F)c(F)c2)c1Cl [Example 89] | 100% | 100% | 94% | 100% | 3.40 | 100% | 100% | 100% | 100% | – | – | –
9 | Cn1nc(C(F)F)c(C(=O)Nc2cccc3c2C2CCC3C2=C(Cl)Cl)c1Cl (centres unmarked) [Example 71] | 100% | 100% | 80% | 100% | 4.21 | 100% | 94% | 100% | 94% | 94% | – | –
10 | Cn1nc(C(F)F)c(C(=O)Nc2ccccc2-c2cc(F)c(F)cc2F)c1F [Example 107] | 88% | – | 100% | – | 3.25 | – | – | – | – | – | – | –
11 | Cn1nc(C(F)F)c(C(=O)Nc2ccccc2-c2cc(F)c(F)c(F)c2)c1F [Example 104] | – | 100% | – | 100% | 3.30 | 100% | 100% | – | – | – | 100% | –
12 | Cn1nc(C(F)F)c(C(=O)Nc2cccc3c2C2CCC3C2=C(Cl)Cl)c1F (centres unmarked) [Example 72] | 100% | 100% | 70% | 100% | 3.99 | 94% | 100% | 100% | 100% | 100% | – | –
13 | Cn1nc(C(F)F)c(C(=O)Nc2ccccc2-c2ccc(Cl)cc2)c1Cl [Example 88] | 100% | 100% | 94% | 100% | 3.85 | 100% | 92% | 100% | 100% | – | – | –
14 | Cn1nc(C(F)F)c(C(=O)Nc2ccc(F)cc2-c2ccc(F)cc2)c1F [Example 77] | 95% | – | 95% | – | 3.16 | – | – | – | – | – | – | –
15 | Cn1nc(C(F)F)c(C(=O)Nc2ccccc2-c2ccc(Br)cc2Cl)c1Cl [Example 154] | 100% | – | 95% | 100% | 4.16 | – | 78% | 100% | – | – | – | –
16 | Cn1nc(C(F)F)c(C(=O)Nc2ccc(F)cc2OCC(C)(C)C)c1F [Example 28] | – | 71% | 70% | 100% | 4.08 | 100% | – | 94% | – | – | – | 90%
17 | Cn1nc(C(F)F)c(C(=O)Nc2ccccc2-c2ccc(Cl)cc2)c1F [Example 85] | 98% | 100% | 95% | 100% | 3.57 | 100% | 100% | 100% | 100% | – | – | –

Row | SMILES | Efficacy [1] | Efficacy [2] | Efficacy [3] | Efficacy [4] | logP [5] | Efficacy [6] | Efficacy [7] | Efficacy [8] | Efficacy ([9]; 500 ppm) | Efficacy ([9]; 250 ppm) | Efficacy ([8]; listed as 104 from this invention) | Efficacy [10]
18 | Cn1nc(C(F)F)c(C(=O)Nc2ccccc2-c2ccc(Br)cc2)c1Cl [Example 140] | – | 100% | – | 100% | 3.88 | 100% | 98% | 100% | 86% | – | – | –
19 | Cn1nc(C(F)F)c(C(=O)Nc2ccccc2-c2ccc(Br)c(Cl)c2)c1F [Example 152] | 95% | 100% | 94% | 100% | 3.83 | 100% | 100% | 100% | 100% | – | – | –
20 | Cn1nc(C(F)F)c(C(=O)Nc2cccc(-c3ccc(Cl)cc3)c2)c1Cl [Example 208] | – | 100% | – | – | 4.04 | 100% | – | – | 100% | – | – | 100%
21 | Cn1nc(C(F)F)c(C(=O)Nc2ccccc2-c2ccc(F)cc2)c1F [Example 80] | 98% | – | 95% | – | 3.20 | – | – | – | – | – | – | –
22 | Cn1nc(C(F)F)c(C(=S)Nc2ccccc2-c2ccc(Br)cc2)c1Cl [Example 141] | 95% | – | 70% | – | 3.96 | – | – | – | – | – | – | –
23 | Cn1nc(C(F)F)c(C(=O)Nc2ccccc2-c2ccccc2)c1F [Example 73] | 75% | – | 90% | – | 3.25 | – | – | – | – | – | – | –
24 | Cn1nc(C(F)F)c(C(=O)Nc2ccccc2-c2ccc(Br)cc2Cl)c1F [Example 155] | – | – | 95% | 100% | 3.85 | – | 100% | 100% | – | – | – | –
25 | Cn1nc(C(F)F)c(C(=O)Nc2ccccc2C(C)(C)C)c1F [Example 3] | 98% | – | 94% | – | 2.98 | – | – | – | – | – | – | –
26 | Cn1nc(C(F)F)c(C(=O)Nc2ccccc2-c2ccc(-c3ccccc3)cc2)c1F [Example 137] | 100% | 93% | 95% | 100% | 4.27 | 100% | – | 99% | – | – | – | –
27 | Cn1nc(C(F)F)c(C(=O)Nc2ccccc2OCc2ccc(Cl)cc2Cl)c1Cl [Example 163] | – | 92% | – | – | 4.81 | 71% | – | – | – | – | – | 71%
28 | CCCC(C)c1ccccc1NC(=O)c1c(C(F)F)nn(C)c1Cl (centres unmarked) [Example 9] | 100% | 100% | 95% | 100% | 3.77 | 100% | – | 100% | 100% | – | – | –
29 | CC1CCCC(c2ccccc2NC(=O)c2c(C(F)F)nn(C)c2Cl)C1 (centres unmarked) [Example 53] | 100% | – | 100% | 100% | 4.29 | – | 94% | 100% | – | – | – | –
30 | Cn1nc(C(F)F)c(C(=O)Nc2ccc(F)cc2-c2ccc(F)cc2)c1Cl [Example 79] | 95% | – | 90% | – | 3.41 | – | – | – | – | – | – | –
31 | COC(C)(C)CCc1ccccc1NC(=O)c1c(C(F)F)nn(C)c1F [Example 23] | – | 71% | 70% | 100% | 2.74 | 100% | – | 90% | – | – | – | 100%
32 | CCCC(C)c1ccccc1NC(=O)c1c(C(F)F)nn(C)c1F (centres unmarked) [Example 8] | – | 100% | 95% | 100% | 3.55 | 100% | 98% | 100% | – | – | – | –
33 | Cn1nc(C(F)F)c(C(=O)Nc2ccccc2-c2cc(F)c(F)cc2F)c1Cl [Example 108] | 93% | – | 100% | 100% | 3.46 | – | 99% | 100% | – | – | – | –
34 | Cn1nc(C(F)F)c(C(=O)Nc2ccccc2-c2ccc(F)cc2)c1Cl [Example 78] | 75% | – | 90% | – | 3.40 | – | – | – | – | – | – | –
